The subject of this test is serum uric acid. Kind of test: Serum uric acid levels on day 9 of the study (Example 6). The test is classed as in vivo, human. Here is the method: Human clinical studies using the compositions described in examples 2A, 3A, 4A, 5A were conducted as described: A multi-center, double-blind, placebo-controlled study in 48 treatment-naïve HIV-1-infected subjects, randomized 3:1 (treatment:placebo). Patients were male, 18-65 years with chronic HIV infection, but no history of AIDS-defining illness. Patients were antiretroviral treatment naïve or <14 days prior therapy and had no pre-existing RTI or PI drug resistance and no co-infection with acute HAV, chronic HBV, active HCV. Patient CD4+ cell count was ≧50 cells/mm^3 for 2 cohorts, then ≧200 cells/mm^3 or ≧350 cells/mm^3 depending on site.
The compositions were administered over a 7-day treatment period plus one morning dose for PK purposes on day 8. (It should be noted that in some instances multiple doses of the same composition were administered, in order to achieve the required total dose of compound 1; i.e.in order to achieve a dose of 400 mg compound 1, a patient may have taken four 100 mg compositions or two 200 mg compositions, depending on the dosage form.) Four sequential dose cohorts were administered as follows:
Serum uric acid levels were recorded on day 9 of the study, and are shown in the table below and graphically in FIG. 8.

Structures are written as SMILES.

`O=C(CSc1nnc(Br)n1-c1ccc(C2CC2)c2ccccc12)Nc1ccc(C(=O)O)cc1Cl` [Compound 1, 4-(2-(5-bromo-4-(1-cyclopropylnaphthalen-4-yl)-4H-1,2,4-triazol-3-ylthio)acetamido)-3-chlorobenzoic acid]: the “Mean serum UA reduction” value by setting is: (400 mg BID) −30%; (600 mg QD) −21%; (800 mg QD) −21%; (1000 mg QD) −28%.
